Results as given in PMC6934184, “Selective DNA-PKcs inhibition extends the therapeutic index of localized radiotherapy and chemotherapy” (The Journal of Clinical Investigation, 2019).

Biological target: T1, ERBB2 (HER2) (Homo sapiens, UniProt P04626)
T1 construct: purchased Thermo Fisher Scientific (Life Technologies) SelectScreen
Assay: SelectScreen Z'LYTE
Format: biochemical
Outline: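 NU5455 was profiled across the SelectScreen Broad panel of kinase activity and binding assays. Z'LYTE reactions such as CSF1R ran at apparent Km ATP, while the Adapta CAMK1 assay used ATP listed as 10. Values are given as percent.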

T1 sequence (P04626 23-1255): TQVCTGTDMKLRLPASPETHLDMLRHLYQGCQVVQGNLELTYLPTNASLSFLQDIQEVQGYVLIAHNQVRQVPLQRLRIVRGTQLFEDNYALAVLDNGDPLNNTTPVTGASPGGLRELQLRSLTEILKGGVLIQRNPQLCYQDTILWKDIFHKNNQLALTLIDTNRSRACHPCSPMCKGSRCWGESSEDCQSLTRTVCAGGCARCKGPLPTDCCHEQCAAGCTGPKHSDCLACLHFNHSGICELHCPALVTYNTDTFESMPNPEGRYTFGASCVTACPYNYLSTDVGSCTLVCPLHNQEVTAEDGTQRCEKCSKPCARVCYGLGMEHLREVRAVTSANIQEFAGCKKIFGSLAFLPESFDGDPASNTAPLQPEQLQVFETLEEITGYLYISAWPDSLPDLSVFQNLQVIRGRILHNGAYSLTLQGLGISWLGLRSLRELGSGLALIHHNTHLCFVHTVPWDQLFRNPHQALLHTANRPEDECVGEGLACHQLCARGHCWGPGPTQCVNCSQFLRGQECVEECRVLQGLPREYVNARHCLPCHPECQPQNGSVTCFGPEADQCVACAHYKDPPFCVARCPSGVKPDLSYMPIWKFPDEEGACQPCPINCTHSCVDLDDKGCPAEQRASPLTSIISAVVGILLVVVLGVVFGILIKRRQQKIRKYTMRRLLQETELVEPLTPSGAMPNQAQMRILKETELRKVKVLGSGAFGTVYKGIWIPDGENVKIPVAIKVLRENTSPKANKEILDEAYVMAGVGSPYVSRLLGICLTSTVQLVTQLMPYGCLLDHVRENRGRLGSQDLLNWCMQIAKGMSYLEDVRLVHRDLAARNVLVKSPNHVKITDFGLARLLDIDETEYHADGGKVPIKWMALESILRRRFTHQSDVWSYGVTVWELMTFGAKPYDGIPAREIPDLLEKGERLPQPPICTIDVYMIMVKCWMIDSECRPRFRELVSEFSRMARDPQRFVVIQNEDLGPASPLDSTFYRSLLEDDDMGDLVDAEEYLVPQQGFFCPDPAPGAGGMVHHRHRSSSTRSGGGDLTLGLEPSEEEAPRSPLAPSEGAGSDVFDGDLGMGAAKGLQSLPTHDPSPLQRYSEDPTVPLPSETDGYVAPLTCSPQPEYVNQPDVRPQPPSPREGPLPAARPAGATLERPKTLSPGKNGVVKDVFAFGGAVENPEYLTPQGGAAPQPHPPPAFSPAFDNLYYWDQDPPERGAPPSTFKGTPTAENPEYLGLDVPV

In the case of `CN(C(=O)CN1CCOCC1)c1ccc2sc3c(-c4cccc5c(=O)cc(N6CC7CCC(C6)O7)oc45)cccc3c2c1` [NU5455], the inhibition at 1 µM is reported as 5.6%.
